# Test results published in US20240252506A1 (Hoffmann-La Roche Inc., priority 2021, published 2024).
# System: Escherichia coli ATCC 25922
# Assay: Minimal Inhibitory Concentration (MIC) determination, broth microdilution (CLSI M07-A10)
# Format: cell-based
# Details: Escherichia coli, ATCC25922, strain Escherichia coli ATCC 25922, 18-24 hours at 35±2° C., lowest concentration for complete growth inhibition (no visible growth), read-out: Escherichia coli growth inhibition MIC
# How it was run: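 MIC read visually as the lowest concentration with complete growth inhibition after 18-24 h at 35±2° C, ambient air. Method follows CLSI M07-A10 broth microdilution, two-fold compound series, inoculum standardized to 0.5 McFarland then diluted 1:200.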
row,Structure (SMILES),MIC
1,"CNC(=O)CNCc1nc2c(F)c3c(cc2[nH]1)CC(CN1CCC2(CC1)CN(c1cnc4c(n1)NC(=O)CO4)C(=O)O2)C3 (centres unmarked) [Example 71, 2-[[8-fluoro-6-[[2-oxo-3-(3-oxo-4H-pyrazino[2,3-b][1,4]oxazin-6-yl)-1-oxa-3,8-diazaspiro[4.5]decan-8-yl]methyl]-3,5,6,7-tetrahydrocyclopenta[f]benzimidazol-2-yl]methylamino]-N-methyl-acetamide]",1 µg/mL
2,"Cc1nc2c(F)c3c(cc2n1CCN)CC(CN1CCC2(CC1)CN(c1cnc4c(n1)NC(=O)CO4)C(=O)O2)C3 (centres unmarked) [Example 73, 6-[8-[[3-(2-Aminoethyl)-8-fluoro-2-methyl-6,7-dihydro-5H-cyclopenta[f]benzimidazol-6-yl]methyl]-2-oxo-1-oxa-3,8-diazaspiro[4.5]decan-3-yl]-4H-pyrazino[2,3-b][1,4]oxain-3-one]",2 µg/mL
3,"NCCn1nc2cc3c(c(F)c2n1)CC(CN1CCC2(CC1)CN(c1cnc4c(n1)NC(=O)CO4)C(=O)O2)C3 (centres unmarked) [Example 74, 6-[8-[[2-(2-aminoethyl)-8-fluoro-6,7-dihydro-5H-cyclopenta[f]benzotriazol-6-yl]methyl]-2-oxo-1-oxa-3,8-diazaspiro[4.5]decan-3-yl]-4H-pyrazino[2,3-b][1,4]oxazin-3-one]",0.06 µg/mL
4,"NCCn1nnc2c(F)c3c(cc21)CC(CN1CCC2(CC1)CN(c1cnc4c(n1)NC(=O)CO4)C(=O)O2)C3 (centres unmarked) [Example 75, 6-[8-[[3-(2-aminoethyl)-8-fluoro-6,7-dihydro-5H-cyclopenta[f]benzotriazol-6-yl]methyl]-2-oxo-1-oxa-3,8-diazaspiro[4.5]decan-3-yl]-4H-pyrazino[2,3-b][1,4]oxazin-3-one]",≤ 0.06 µg/mL
5,"NCCn1nnc2cc3c(c(F)c21)CC(CN1CCC2(CC1)CN(c1cnc4c(n1)NC(=O)CO4)C(=O)O2)C3 (centres unmarked) [Example 76, 6-[8-[[1-(2-aminoethyl)-8-fluoro-6,7-dihydro-5H-cyclopenta[f]benzotriazol-6-yl]methyl]-2-oxo-1-oxa-3,8-diazaspiro[4.5]decan-3-yl]-4H-pyrazino[2,3-b][1,4]oxazin-3-one]",0.125 µg/mL
6,"NC1(Cn2nc3c(F)c4c(c(F)c3n2)CC(CN2CCC3(CC2)CN(c2cnc5c(n2)NC(=O)CO5)C(=O)O3)C4)CC1.O=C(O)C(F)(F)F [Example 77, 6-[8-[[2-[(1-aminocyclopropyl)methyl]-4,8-difluoro-6,7-dihydro-5H-cyclopenta[f]benzotriazol-6-yl]methyl]-2-oxo-1-oxa-3,8-diazaspiro[4.5]decan-3-yl]-4H-pyrazino[2,3-b][1,4]oxazin-3-one; 2,2,2-trifluoroacetic acid]",0.25 µg/mL
7,"NC1(Cn2nnc3c(F)c4c(c(F)c32)CC(CN2CCC3(CC2)CN(c2cnc5c(n2)NC(=O)CO5)C(=O)O3)C4)CC1 (centres unmarked) [Example 78, 6-[8-[[1-[(1-aminocyclopropyl)methyl]-4,8-difluoro-6,7-dihydro-5H-cyclopenta[f]benzotriazol-6-yl]methyl]-2-oxo-1-oxa-3,8-diazaspiro[4.5]decan-3-yl]-4H-pyrazino[2,3-b][1,4]oxazin-3-one]",0.25 µg/mL
8,"O=C1COc2ncc(N3CC4(CCN(CC5Cc6c(c(F)c7nn(C8CNC8)nc7c6F)C5)CC4)OC3=O)nc2N1.O=CO [Example 79, 6-[8-[[2-(azetidin-3-yl)-4,8-difluoro-6,7-dihydro-5H-cyclopenta[f]benzotriazol-6-yl]methyl]-2-oxo-1-oxa-3,8-diazaspiro[4.5]decan-3-yl]-4H-pyrazino[2,3-b][1,4]oxazin-3-one; formic acid]",0.125 µg/mL
9,"O=C1COc2ncc(N3CC4(CCN(CC5Cc6c(c(F)c7c(nnn7C7CNC7)c6F)C5)CC4)OC3=O)nc2N1 (centres unmarked) [Example 80, 6-[8-[[1-(azetidin-3-yl)-4,8-difluoro-6,7-dihydro-5H-cyclopenta[f]benzotriazol-6-yl]methyl]-2-oxo-1-oxa-3,8-diazaspiro[4.5]decan-3-yl]-4H-pyrazino[2,3-b][1,4]oxazin-3-one]",0.125 µg/mL
10,"NCCn1nc2cc(F)c3c(c2n1)CC(CN1CCC2(CC1)CN(c1cnc4c(n1)NC(=O)CO4)C(=O)O2)C3.O=C(O)C(F)(F)F (centres unmarked) [Example 83, 6-[8-[[2-(2-aminoethyl)-5-fluoro-7,8-dihydro-6H-cyclopenta[e]benzotriazol-7-yl]methyl]-2-oxo-1-oxa-3,8-diazaspiro[4.5]decan-3-yl]-4H-pyrazino[2,3-b][1,4]oxazin-3-one; 2,2,2-trifluoroacetic acid]",≤ 0.06 µg/mL
11,"NCCn1nnc2cc(F)c3c(c21)CC(CN1CCC2(CC1)CN(c1cnc4c(n1)NC(=O)CO4)C(=O)O2)C3 (centres unmarked) [Example 84, 6-[8-[[1-(2-aminoethyl)-5-fluoro-7,8-dihydro-6H-cyclopenta[e]benzotriazol-7-yl]methyl]-2-keto-1-oxa-3,8-diazaspiro[4.5]decan-3-yl]-4H-pyrazino[2,3-b][1,4]oxazin-3-one]",0.25 µg/mL
12,"NCCn1nnc2c3c(c(F)cc21)CC(CN1CCC2(CC1)CN(c1cnc4c(n1)NC(=O)CO4)C(=O)O2)C3 (centres unmarked) [Example 85, 6-[8-[[3-(2-aminoethyl)-5-fluoro-7,8-dihydro-6H-cyclopenta[e]benzotriazol-7-yl]methyl]-2-keto-1-oxa-3,8-diazaspiro[4.5]decan-3-yl]-4H-pyrazino[2,3-b][1,4]oxazin-3-one]",0.25 µg/mL
13,"C[C@@H](N)c1nc2cc3c(c(F)c2o1)CC(CN1CCC2(CC1)CN(c1cnc4c(n1)NC(=O)CO4)C(=O)O2)C3 (stereo partly drawn) [Example 90, 6-[8-[[2-[(1R)-1-aminoethyl]-8-fluoro-6,7-dihydro-5H-cyclopenta[f][1,3]benzoxazol-6-yl]methyl]-2-oxo-1-oxa-,38-diazaspiro[4.5]decan-3-yl]-4H-pyrazino[2,3-b][1,4]oxazin-3-one]",0.125 µg/mL
14,"CNCc1nc2cc(F)c3c(c2[nH]1)CC(CN1CCC2(CC1)CN(c1cnc4c(n1)NC(=O)CO4)C(=O)O2)C3 (centres unmarked) [Example 92, 6-[8-[[5-fluoro-2-(methylaminomethyl)-1,6,7,8-tetrahydrocyclopenta[e]benzimidazol-7-yl]methyl]-2-oxo-1-oxa-3,8-diazaspiro[4.5]decan-3-yl]-4H-pyrazino[2,3-b][1,4]oxazin-3-one]",0.125 µg/mL
15,"CNCc1nc2c(F)c3c(cc2o1)CC(CN1CCC2(CC1)CN(c1cnc4c(n1)NC(=O)CO4)C(=O)O2)C3 (centres unmarked) [Example 93, 6-[8-[[4-fluoro-2-(methylaminomethyl)-6,7-dihydro-5H-cyclopenta[f][1,3]benzoxazol-6-yl]methyl]-2-oxo-1-oxa-3,8-diazaspiro[4.5]decan-3-yl]-4H-pyrazino[2,3-b][1,4]oxazin-3-one]",0.125 µg/mL
16,"CNCc1nc2c3c(c(F)cc2o1)CC(CN1CCC2(CC1)CN(c1cnc4c(n1)NC(=O)CO4)C(=O)O2)C3 (centres unmarked) [Example 96, 6-[8-[[5-fluoro-2-(methylaminomethyl)-7,8-dihydro-6H-cyclopenta[e][1,3]benzoxazol-7-yl]methyl]-2-oxo-1-oxa-3,8-diazaspiro[4.5]decan-3-yl]-4H-pyrazino[2,3-b][1,4]oxazin-3-one]",0.125 µg/mL
17,"C[C@H](N)c1nc2cc3c(c(F)c2o1)CC(CN1CCC2(CC1)CN(c1cnc4c(n1)NC(=O)CO4)C(=O)O2)C3 (stereo partly drawn) [Example 97, 6-[8-[[2-[(1S)-1-aminoethyl]-8-fluoro-6,7-dihydro-5H-cyclopenta[f][1,3]benzoxazol-6-yl]methyl]-2-oxo-1-oxa-3,8-diazaspiro[4.5]decan-3-yl]-4H-pyrazino[2,3-b][1,4]oxazin-3-one]",0.125 µg/mL
